Source: US4105659A, “1,2,3,4,5,6-Hexahydro-2,6-methano-3-benzazocines” (Sterling Drug Inc., priority 1964, dated 1978)
In brackets after ≈: the same amount, converted by molar mass.

Columns and labels:
[1] = Clinical analgesia in human subjects; type: in vivo
Protocol: In human subjects, however, the compounds of Formulas I and II are valuable and effective agents for producing analgesia when administered in the general range of about 10 to 500 mg. per 70 kg. of subject weight, the dosage depending of course on the particular compound, the mode of administration, and the like. The following clinical results which were obtained in human subjects are illustrative. For oral administration the free base was used, and for parenteral (usually intramuscular) administration an aqueous solution of the lactate salt was used; the dosages are expressed in each instance in terms of milligrams of base per 70 kilograms of body weight of the human subject.

[2] = Solubility, pH of solution and precipitation on pH adjustment or dilution; type: physicochemical
Protocol: A. A mixture of 8.7 g. of racemic cis 1,2,3,4,5,6-hexahydro-6,11-dimethyl-8-hydroxy-2,6-methano-3-benzazocine (which is also known as racemic cis 2'-hydroxy-5,9-dimethyl-6,7-benzomorphan), 6.0 g of 1-bromo-3-methyl-2-butene, 5.0 g. of sodium bicarbonate, and 125 ml. of N,N-dimethylformamide was stirred and refluxed for approximately 41/2 hours. The reaction mixture was then filtered, and the solid on the filter was washed with ethanol. The filtrate and the wash liquor were combined, concentrated under reduced pressure, and then extracted with chloroform. The chloroform extract was concentrated under reduced pressure to yield a syrup which weighed 15.8 g. This syrup was dissolved in 120 ml. of diethyl ether and the resulting solution was filtered to remove approximately one-half gram of a brown amorphous solid. The filtrate was extracted with a mixture of 5 ml. of concentrated hydrochloric acid and 20 ml. of water. To the extract there was added 5 ml. of concentrated ammonium hydroxide solution and ice. A pale tan syrup separated from solution and after stirring, this syrup solidified. The resulting pale tan solid was collected and dried; it weighed 10.6 g. After two recrystallizations from a mixture of methyl alcohol and water, with charcoaling, this solid weighed 8.2 g. and melted at 145°-147° C. The product thus obtained was racemic cis 1,2,3,4,5,6-hexahydro-3-(3-methyl-2-butenyl)-6,11-dimethyl-8-hydroxy-2,6-methano-3-benzazocine (Formula II: Y = --CH2 --CH=C(CH3)2; R^3 = --H), having the molecular formula C19 H27 NO. This product was soluble in a mixture of 0.35 ml. of N/2 hydrochloric acid and 0.15 ml. of water to the extent of 10 percent, the pH of the 1 percent solution being 2.80; and when the pH of the 1 percent solution was gradually raised by addition of N/10 sodium hydroxide solution, a precipitate formed at pH 5.4. When the base was converted to the hydrochloride and was then regenerated from this salt it melted at 151°-153° C. The hydrochloride of this base melted at 245°-247° C. (dec.). and the cyclohexylsulfamate of this base melted at 163°-166° C. The base formed a grayish-yellowtannate.
The racemic trans product was converted to its hydrobromide, having the molecular formula C19 H27 NO·HBr, which was obtained as white needles which melted at 240°-241° C.
The dextro trans product was converted to its hydrochloride, having the molecular formula C19 H27 NO·HCl, which was obtained as white crystals which melted at 254°-255° C.
The levo trans product was converted to its hydrochloride, having the molecular formula C19 H27 NO·HCl, which was obtained as white crystals which melted at 254°-255° C. (dec.); this hydrochloride was soluble in water to the extent of 5 percent, the pH of a 1 percent aqueous solution being 5.7, a precipitate being formed when the 1 percent aqueous solution was adjusted to 7.0 by addition of N/10 sodium hydroxide solution.
A. A mixture of 9.25 g. of racemic cis 1,2,3,4,5,6-hexahydro-6-ethyl-11-methyl-8-hydroxy-2,6-methano-3-benzazocine, 6.0 g. of 1-bromo-3-methyl-2-butene, 125 ml. of N,N-dimethylformamide, and 5.0 g. of sodium bicarbonate was stirred and refluxed for approximately 41/2 hours. The reaction mixture was then filtered, and the solid collected on the filter was washed with ethanol. The filtrate and the wash liquor were combined and concentrated under reduced pressure. To the resulting residue there was added 50 ml. of diethyl ether, and the mixture was filtered. Approximately 0.6 g. of solid was collected on the filter, and 8.2 g. of brown solid separated from the filtrate and was collected by filtration. These two crops of solid (8.8 g.) were combined, 25 ml. of methanol was added, and the mixture was boiled. Only a small portion of the solid dissolved. This mixture was mixed with 25 ml. of water and chilled. The mixture was filtered to collect 8.3 g. of pale tan solid which melted at 156°-158° C. […]

[3] = Support of morphine addiction in stabilized morphine addicts
[4] = tested on: analgesic effect of morphine sulfate; assay: Antagonism of morphine analgesia, modified D'Amour-Smith test; conditions: Rattus norvegicus, sc, read-out: dosage of antagonist which reduced the analgesic effect of morphine by approximately 50 per cent
[5] = tested on: analgesic effect of meperidine hydrochloride; assay: Antagonism of meperidine analgesia, modified D'Amour-Smith test; conditions: for maximum degree of antagonism: versus 60 mg/kg. meperidine
[6] = D'Amour-Smith test for analgesia in rats; type: in vivo
Protocol: In tests as in animals as analgesics and as antagonists of strong analgesics, the racemic, dextro, and levo forms of trans 1,2,3,4,5,6-hexahydro-3-(3-methyl-2-butenyl)-6-ethyl-11-methyl-8-hydroxy-2,6-methano-3-benzazocine described in Example 7D above gave results substantially differing from those of the corresponding cis forms and of the related compounds of this invention. Thus, in the analgesic antagonist test versus a 60 mg/kg. dose of meperidine, the maximum degree of antagonism which could be obtained for these three trans forms was: for the racemic trans form, 50 percent antagonism at 0.1 mg/kg.; for the dextro trans form, 30 percent antagonism at 1.25 mg./kg.; and for the levo trans form, 22 percent antagonism at 0.1 mg./kg.

Structure (SMILES): CC(C)=CCN1CC[C@@]2(C)c3cc(O)ccc3C[C@@H]1[C@@H]2C (relative stereo) [4A (base), racemic cis 1,2,3,4,5,6-hexahydro-3-(3-methyl-2-butenyl)-6,11-dimethyl-8-hydroxy-2,6-methano-3-benzazocine]
- analgesia in human subjects ([1]; orally, 50mg./70 kg. and 100 mg./70 kg.): effective and satisfactory analgesia
- dose approximately equivalent to 10 mg. of morphine sulfate as an analgesic ([1]; parenterally in humans): ~20 mg
- analgesia in human subjects ([1]; parenterally, 10 mg./70 kg. and 60 mg./70 kg.): effective and satisfactory analgesia
- pH of the 1 percent solution ([2]; 1 percent solution in dilute hydrochloric acid): 2.80
- pH at which a precipitate formed ([2]; 1 percent solution, addition of N/10 sodium hydroxide): 5.4
- solubility ([2]; dilute hydrochloric acid, mixture of 0.35 ml. of N/2 hydrochloric acid and 0.15 ml. of water, read-out: solubility in dilute hydrochloric acid): 100 mg/mL (≈ 350 mM)
- support of morphine addiction [3]: did not support morphine addiction
- ED50 [4]: 9 mg/kg
- ED50 ([5]; Rattus norvegicus, sc, read-out: dosage of antagonist which reduced the analgesic effect of meperidine by approximately 50 per cent): 3.9 mg/kg

Structure (SMILES): CC[C@]12CCN(CC=C(C)C)[C@@H](Cc3ccc(O)cc31)C2C (relative stereo) [7D (dextro trans), trans 1,2,3,4,5,6-hexahydro-3-(3-methyl-2-butenyl)-6-ethyl-11-methyl-8-hydroxy-2,6-methano-3-benzazocine]
- analgesic activity in D'Amour-Smith test ([6]; at 30 mg./kg.): inactive
- toxicity in D'Amour-Smith test ([6]; at 60 mg./kg.): toxic
- maximum degree of antagonism ([5]; at 1.25 mg./kg.): 30%

Structure (SMILES): CC[C@]12CCN(CC=C(C)C)[C@@H](Cc3ccc(O)cc31)C2C (relative stereo) [7D (levo trans), trans 1,2,3,4,5,6-hexahydro-3-(3-methyl-2-butenyl)-6-ethyl-11-methyl-8-hydroxy-2,6-methano-3-benzazocine]
- ED50 in D'Amour-Smith test for analgesia [6]: 0.94 mg/kg
- maximum degree of antagonism ([5]; at 0.1 mg/kg.): 22%

Structure (SMILES): CC[C@]12CCN(CC=C(C)C)[C@H](Cc3ccc(O)cc31)[C@H]2C (relative stereo) [7D (racemic trans), trans 1,2,3,4,5,6-hexahydro-3-(3-methyl-2-butenyl)-6-ethyl-11-methyl-8-hydroxy-2,6-methano-3-benzazocine]
- ED50 ([6]; Rattus norvegicus): 1.4 mg/kg
- maximum degree of antagonism ([5]; at 0.1 mg/kg.): 50%
